Measurements taken from patent publication US6455045B1, “Immunogenic compounds with in particular an anti-cytokine effect, preparation process, pharmaceutical compositions and kits containing them” (priority 1991, dated 2002).
No end group written: not given here.

What was measured:
[1] = tested on: T-cells originating from fresh human blood; format: cell-based
[2] = tested on: HIV-1 env bands (gp160, gp120, gp41); assay: Western blot (Abott HIV-1 detection kit) with serums of peptide-immunized mice; format: in vivo; details: 15 μg per injection days 0, 30, 60, day 70
Protocol: Four batches of five mice were chosen to receive the peptides SI Nos. 1, 2, 6, 10 respectively.
The peptides prepared as described in Example 2 were injected on days 0, 30, 60 in a quantity of 15 μg per injection. On day 70 the mice were sacrificed, their T-cells were isolated (spleen and ganglia) and their serum was stored.

| Substance | activation of T-cells (incorporation of labelled thymidine) [1] | Western blot bands showing a signal [2] |
| --- | --- | --- |
| Cys-Gln-His-Leu-Leu-Gln-Leu-Thr-Val-Trp-Gly-Ile-Lys-Glu or Gln-Leu-Glu Gln-Ala-Arg-Ile-Leu-Ala-Val-Glu-Arg-Tyr-Leu-Lys-Asp-Gln [SI No. 5] | low activation according to a dose-effect curve |  |
| Cys-Ser-Ala-Thr-Glu-Lys-Leu-Trp-Val-Thr-Val-Tyr-Tyr [SI No. 7] | low activation according to a dose-effect curve |  |
| His-Glu-Asp-Ile-Ile-Ser-Leu-Trp-Asp-Gln-Ser-Leu-Lys [SI No. 6] | low activation according to a dose-effect curve | gp60 and gp120 bands showed a signal |
| QLLLNGSLAEEE [SI No. 10] | low activation according to a dose-effect curve | gp60 and gp120 bands showed a signal |
| SI No. 1: peptide SI No. 1, a or b form not stated; prepared in proteosomes as in Example 2 (probably 1b); HIV-1 gag P7 region (IARNCRAPRKKG) |  | gp60 and gp120 bands showed a signal |
| SI No. 2: peptide SI No. 2, a or b form not stated; prepared in proteosomes as in Example 2 (probably 2b); HIV-1 gp41 region 735-753 (DRPEGIEEEGGERDRDRS) |  | gp160 and gp41 |
